From patent publication US20260176320A1, “MODULATORS OF G-PROTEIN COUPLED RECEPTORS” (priority 2018, published 2026)
Where two headings read alike, the source gives them in different places. Numbered stars: 1 amine (or outer) side, 2 acyl side, 3 side chain; on linkers, the order of the positions; unused ones are H or OH. Square brackets hold non-standard residues; d marks the D form. Side chains are listed from the residue outwards. Peptide text beside a SMILES is read from it. * marks the point of attachment. γGlu = O=C(O)[C@H](CCC(=O)[*:2])N[*:1]; X2 = O=C(CSCC(=O)*)NCCN1C(=O)CSC1=O; Palmitoyl = CCCCCCCCCCCCCCCC(=O)*; Aib = CC(C)(N)C(=O)O

Assays:
GIP-R = target: T1, GIP-R (Homo sapiens, UniProt P48546); experiment: HitHunter cAMP assay (GIP-R); format: cell-based; details: cAMP; for Emax: read-out: (Emax) GIP-R
T1 sequence (P48546 22-466): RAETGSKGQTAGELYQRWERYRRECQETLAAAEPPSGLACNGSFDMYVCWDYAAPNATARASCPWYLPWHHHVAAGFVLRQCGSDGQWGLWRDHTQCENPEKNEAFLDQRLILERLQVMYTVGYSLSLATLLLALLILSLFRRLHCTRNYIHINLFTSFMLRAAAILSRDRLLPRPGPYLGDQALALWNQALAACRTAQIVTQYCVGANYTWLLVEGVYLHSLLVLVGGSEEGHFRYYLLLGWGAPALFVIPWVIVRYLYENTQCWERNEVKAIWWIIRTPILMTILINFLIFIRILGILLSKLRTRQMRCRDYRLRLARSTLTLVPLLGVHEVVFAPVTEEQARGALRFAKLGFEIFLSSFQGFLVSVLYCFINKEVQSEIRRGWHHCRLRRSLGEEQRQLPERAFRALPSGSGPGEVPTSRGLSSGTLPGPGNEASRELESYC
In short: (§1)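 Agonist stimulation lasts 30 min at room temperature on 10,000 cells per well, with phosphodiesterase blocked by 625 μM IBMX. Accumulated cAMP is quantified by competitive antibody luminescence after overnight development.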

GLP-1R = GLP-1R (Homo sapiens, UniProt P43220); experiment: HitHunter cAMP assay (GLP-1R); format: cell-based; details: cAMP; for Emax: read-out: (Emax) GLP-1R
Sequence of GLP-1R (P43220 24-463): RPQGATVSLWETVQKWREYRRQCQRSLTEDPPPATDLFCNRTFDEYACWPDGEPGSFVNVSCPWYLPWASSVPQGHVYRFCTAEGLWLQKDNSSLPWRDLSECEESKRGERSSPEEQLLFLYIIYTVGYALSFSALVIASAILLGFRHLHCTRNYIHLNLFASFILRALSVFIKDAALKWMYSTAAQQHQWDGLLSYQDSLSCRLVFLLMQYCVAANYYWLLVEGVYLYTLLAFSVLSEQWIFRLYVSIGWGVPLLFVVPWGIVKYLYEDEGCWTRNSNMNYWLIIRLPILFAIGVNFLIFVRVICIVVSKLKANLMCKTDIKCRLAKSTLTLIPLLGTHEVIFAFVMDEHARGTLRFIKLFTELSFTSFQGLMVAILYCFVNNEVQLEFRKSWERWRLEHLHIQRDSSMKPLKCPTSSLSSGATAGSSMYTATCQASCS
In short: as §1

[1] = Table 3A, read-out: EC50 GIP-R/nM
[2] = Table 3A, read-out: EC50 GLP-1R/nM
[3] = Table 3, read-out: EC50 GIP-R/nM
[4] = Table 3, read-out: EC50 GLP-1R/nM

Compound: CCCCCCCCCCCCCCCC(=O)N[C@@H](CCC(=O)NCCCC[C@H](NC(=O)[C@@H](NC(=O)[C@H](Cc1ccccc1)NC(=O)[C@H](CCC(=O)O)NC(=O)C(C)(C)NC(=O)[C@H](C)NC(=O)[C@H](C)NC(=O)[C@H](CCC(N)=O)NC(=O)[C@H](CCCCN)NC(=O)[C@H](CC(=O)O)NC(=O)[C@H](CC(C)C)NC(=O)[C@H](Cc1ccc(O)cc1)NC(=O)[C@@H](NC(=O)[C@H](CO)NC(=O)[C@H](Cc1ccc(O)cc1)NC(=O)[C@H](CC(=O)O)NC(=O)[C@H](CO)NC(=O)[C@@H](NC(=O)[C@H](Cc1ccccc1)NC(=O)[C@@H](NC(=O)CNC(=O)[C@H](CCC(=O)O)NC(=O)CSCC(=O)NCCN1C(=O)CSC1=O)[C@@H](C)O)[C@@H](C)O)[C@@H](C)CC)C(C)C)C(=O)N[C@@H](Cc1c[nH]c2ccccc12)C(=O)N[C@@H](CC(C)C)C(=O)N[C@@H](CC(C)C)C(=O)N[C@@H](C)C(=O)NCC(=O)NCC(=O)N1CCC[C@H]1C(=O)N[C@@H](CO)C(=O)N[C@@H](CO)C(=O)NCC(=O)N[C@@H](C)C(=O)N1CCC[C@H]1C(=O)N1CCC[C@H]1C(=O)N1CCC[C@H]1C(=O)N[C@@H](CO)C(=O)N[C@@H](CCCCN)C(N)=O)C(=O)O [Compound 197] (X2-EGTFTSDYSIYLDKQAA[Aib]EFVK([γGlu-Palmitoyl])WLLAGGPSSGAPPPSK-NH2)
- Emax (GIP-R; Table 3A): 20%
- EC50 (GIP-R; [1]): 100 to 1000 nM
- Emax (GLP-1R; Table 3A): 95%
- EC50 (GLP-1R; [2]): 10 to 100 nM

Compound: CCCCCCCCCCCCCCCC(=O)N[C@@H](CCC(=O)NCCCC[C@H](NC(=O)[C@H](CO)NC(=O)[C@@H]1CCCN1C(=O)[C@@H]1CCCN1C(=O)[C@@H]1CCCN1C(=O)[C@H](C)NC(=O)CNC(=O)[C@H](CO)NC(=O)[C@H](CO)NC(=O)[C@@H]1CCCN1C(=O)CNC(=O)CNC(=O)[C@H](C)NC(=O)[C@H](CC(C)C)NC(=O)[C@H](CC(C)C)NC(=O)[C@H](Cc1c[nH]c2ccccc12)NC(=O)[C@H](CC(N)=O)NC(=O)[C@@H](NC(=O)[C@H](Cc1ccccc1)NC(=O)[C@H](CCC(=O)O)NC(=O)C(C)(C)NC(=O)[C@H](C)NC(=O)[C@H](C)NC(=O)[C@H](CCC(N)=O)NC(=O)[C@H](CCCCN)NC(=O)[C@H](CC(=O)O)NC(=O)[C@H](CC(C)C)NC(=O)[C@H](Cc1ccc(O)cc1)NC(=O)[C@@H](NC(=O)[C@H](CO)NC(=O)[C@H](Cc1ccc(O)cc1)NC(=O)[C@H](CC(=O)O)NC(=O)[C@H](CO)NC(=O)[C@@H](NC(=O)[C@H](Cc1ccccc1)NC(=O)[C@@H](NC(=O)CNC(=O)[C@H](CCC(=O)O)NC(=O)CSCC(=O)NCCN1C(=O)c2ccc(C)cc2C1=O)[C@@H](C)O)[C@@H](C)O)[C@@H](C)CC)C(C)C)C(N)=O)C(=O)O [Compound 247]
- EC50 (GIP-R; EC50 GIP-R/nM, Table 3A): < 0.1 nM
- Emax (GIP-R; Table 3A): 110%
- EC50 (GLP-1R; EC50 GLP-1R/nM, Table 3A): 0.1 to 1 nM
- Emax (GLP-1R; Table 3A): 102%

Compound: CCCCCCCCCCCCCCCC(=O)N[C@@H](CCC(=O)NCCCC[C@H](NC(=O)[C@H](CO)NC(=O)[C@@H]1CCCN1C(=O)[C@@H]1CCCN1C(=O)[C@@H]1CCCN1C(=O)[C@H](C)NC(=O)CNC(=O)[C@H](CO)NC(=O)[C@H](CO)NC(=O)[C@@H]1CCCN1C(=O)CNC(=O)CNC(=O)[C@H](C)NC(=O)[C@H](CC(C)C)NC(=O)[C@H](CC(C)C)NC(=O)[C@H](Cc1c[nH]c2ccccc12)NC(=O)[C@H](CC(N)=O)NC(=O)[C@@H](NC(=O)[C@H](Cc1ccccc1)NC(=O)[C@H](CCC(=O)O)NC(=O)C(C)(C)NC(=O)[C@H](C)NC(=O)[C@H](C)NC(=O)[C@H](CCC(N)=O)NC(=O)[C@H](CCCCN)NC(=O)[C@H](CC(=O)O)NC(=O)[C@H](CC(C)C)NC(=O)[C@H](Cc1ccc(O)cc1)NC(=O)[C@@H](NC(=O)[C@H](CO)NC(=O)[C@H](Cc1ccc(O)cc1)NC(=O)[C@H](CC(=O)O)NC(=O)[C@H](CO)NC(=O)[C@@H](NC(=O)[C@H](Cc1ccccc1)NC(=O)[C@@H](NC(=O)CNC(=O)[C@H](CCC(=O)O)NC(=O)CSCC(=O)NCCN1C[C@H](C)CC1=O)[C@@H](C)O)[C@@H](C)O)[C@@H](C)CC)C(C)C)C(N)=O)C(=O)O (single isomer, unassigned) [Compound 28]
- Emax (GIP-R; Table 3): 57%
- Emax (GIP-R; Table 3A): 57%
- Emax (GLP-1R; Table 3): 101%
- Emax (GLP-1R; Table 3A): 101%

Compound: CCCCCCCCCCCCCCCC(=O)N[C@@H](CCC(=O)NCCCC[C@H](NC(=O)[C@H](CO)NC(=O)[C@@H]1CCCN1C(=O)[C@@H]1CCCN1C(=O)[C@@H]1CCCN1C(=O)[C@H](C)NC(=O)CNC(=O)[C@H](CO)NC(=O)[C@H](CO)NC(=O)[C@@H]1CCCN1C(=O)CNC(=O)CNC(=O)[C@H](C)NC(=O)[C@H](CC(C)C)NC(=O)[C@H](CC(C)C)NC(=O)[C@H](Cc1c[nH]c2ccccc12)NC(=O)[C@H](CC(N)=O)NC(=O)[C@@H](NC(=O)[C@H](Cc1ccccc1)NC(=O)[C@H](CCC(=O)O)NC(=O)C(C)(C)NC(=O)[C@H](C)NC(=O)[C@H](C)NC(=O)[C@H](CCC(N)=O)NC(=O)[C@H](CCCCN)NC(=O)[C@H](CC(=O)O)NC(=O)[C@H](CC(C)C)NC(=O)[C@H](Cc1ccc(O)cc1)NC(=O)[C@@H](NC(=O)[C@H](CO)NC(=O)[C@H](Cc1ccc(O)cc1)NC(=O)[C@H](CC(=O)O)NC(=O)[C@H](CO)NC(=O)[C@@H](NC(=O)[C@H](Cc1ccccc1)NC(=O)[C@@H](NC(=O)CNC(=O)[C@H](CCC(=O)O)NC(=O)CSCC(=O)NCCN1C[C@H](O)CC1=O)[C@@H](C)O)[C@@H](C)O)[C@@H](C)CC)C(C)C)C(N)=O)C(=O)O [Compound 50]
- Emax (GIP-R; Table 3): 26%
- EC50 (GIP-R; [3]): 1 to 10 nM
- Emax (GIP-R; Table 3A): 26%
- EC50 (GIP-R; [1]): 10 to 100 nM
- Emax (GLP-1R; Table 3): 103%
- EC50 (GLP-1R; [4]): 0.1 to 1 nM
- Emax (GLP-1R; Table 3A): 103%
- EC50 (GLP-1R; [2]): 0.1 to 1 nM

Compound: CC[C@H](C)[C@H](NC(=O)[C@H](CO)NC(=O)[C@H](Cc1ccc(O)cc1)NC(=O)[C@H](CC(=O)O)NC(=O)[C@H](CO)NC(=O)[C@@H](NC(=O)[C@H](Cc1ccccc1)NC(=O)[C@@H](NC(=O)CNC(=O)[C@H](CCC(=O)O)NC(=O)C(C)(C)C(=O)O)[C@@H](C)O)[C@@H](C)O)C(=O)N[C@@H](Cc1ccc(O)cc1)C(=O)N[C@@H](CC(C)C)C(=O)N[C@@H](CC(=O)O)C(=O)N[C@@H](CCCCN)C(=O)N[C@@H](CCC(N)=O)C(=O)N[C@@H](C)C(=O)N[C@@H](C)C(=O)NC(C)(C)C(=O)N[C@@H](CCC(=O)O)C(=O)N[C@@H](Cc1ccccc1)C(=O)N[C@H](C(=O)N[C@@H](CC(N)=O)C(=O)N[C@@H](Cc1c[nH]c2ccccc12)C(=O)N[C@@H](CC(C)C)C(=O)N[C@@H](CC(C)C)C(=O)N[C@@H](C)C(=O)NCC(=O)NCC(=O)N1CCC[C@H]1C(=O)N[C@@H](CO)C(=O)N[C@@H](CO)C(=O)NCC(=O)N[C@@H](C)C(=O)N1CCC[C@H]1C(=O)N1CCC[C@H]1C(=O)N1CCC[C@H]1C(=O)N[C@@H](CO)C(=O)N[C@@H](CCCCN)C(N)=O)C(C)C [Compound 131]
- Emax (GIP-R; Table 3): 3.2%
- EC50 (GIP-R; [3]): > 1000 nM
- EC50 (GIP-R; [1]): > 1000 nM
- Emax (GLP-1R; Table 3): 95%
- EC50 (GLP-1R; [4]): 1 to 10 nM
- Emax (GLP-1R; Table 3A): 95%
- EC50 (GLP-1R; [2]): 1 to 10 nM

Compound: CCCCCCCCCCCCCCCC(=O)N[C@@H](CCC(=O)NCCCC[C@H](NC(=O)[C@H](CO)NC(=O)[C@@H]1CCCN1C(=O)[C@@H]1CCCN1C(=O)[C@@H]1CCCN1C(=O)[C@H](C)NC(=O)CNC(=O)[C@H](CO)NC(=O)[C@H](CO)NC(=O)[C@@H]1CCCN1C(=O)CNC(=O)CNC(=O)[C@H](C)NC(=O)[C@H](CC(C)C)NC(=O)[C@H](CC(C)C)NC(=O)[C@H](Cc1c[nH]c2ccccc12)NC(=O)[C@H](CC(N)=O)NC(=O)[C@@H](NC(=O)[C@H](Cc1ccccc1)NC(=O)[C@H](CCC(=O)O)NC(=O)C(C)(C)NC(=O)[C@H](C)NC(=O)[C@H](C)NC(=O)[C@H](CCC(N)=O)NC(=O)[C@H](CCCCN)NC(=O)[C@H](CC(=O)O)NC(=O)[C@H](CC(C)C)NC(=O)[C@H](Cc1ccc(O)cc1)NC(=O)[C@@H](NC(=O)[C@H](CO)NC(=O)[C@H](Cc1ccc(O)cc1)NC(=O)[C@H](CC(=O)O)NC(=O)[C@H](CO)NC(=O)[C@@H](NC(=O)[C@H](Cc1ccccc1)NC(=O)[C@@H](NC(=O)CNC(=O)[C@H](CCc1nn[nH]n1)NC(=O)CSCC(=O)NCCN1CCCCC1=O)[C@@H](C)O)[C@@H](C)O)[C@@H](C)CC)C(C)C)C(N)=O)C(=O)O [Compound 221]
- Emax (GIP-R; Table 3A): 68%
- EC50 (GIP-R; [1]): 1 to 10 nM
- Emax (GLP-1R; Table 3A): 95%
- EC50 (GLP-1R; [2]): 1 to 10 nM
